Laboratory results reported in US11707440B2 (priority 2017, dated 2023).

Key:
subjects with TRD = conditions: human, in vivo, other: intranasal
Experimental: FIGS. 53 and 54 present means for blood pressure over time by treatment group in the maintenance phase.
Transient blood pressure increases peaked for the esketamine group at approximately 40 minutes post dose and returned closer to predose levels by 1.5 hours post dose.

[1] = test system: patients with treatment-resistant depression (TRD); assay: Adverse events, Example 7; assay type: in vivo, human; conditions: for Dissociation, number of participants / Dissociative disorder, % of participants / Dissociative disorder, number of participants / Dizziness, % of participants / Dizziness, number of participants / Dysgeusia, % of participants / Dysgeusia, number of participants / Feeling abnormal, % of participants / Feeling abnormal, number of participants / Headache, % of participants / Headache, number of participants / Hypersomnia, % of participants / Hypersomnia, number of participants / Hypertension, number of participants / Hypoesthesia oral, % of participants / Hypoesthesia oral, number of participants / Insomnia, number of participants / Nasal discomfort, number of participants / Nausea, % of participants / Nausea, number of participants / Oropharyngeal pain, number of participants / Polyuria, number of participants / Sedation, % of participants / Sedation, number of participants / Throat irritation, % of participants / Throat irritation, number of participants / Total with events, % of participants / Total with events, number of participants / Tunnel vision, number of participants / Vertigo, % of participants / Vertigo, number of participants / Vision blurred, number of participants / Dissociation, % of participants / Hypertension, % of participants / Insomnia, % of participants / Nasal discomfort, % of participants / Oropharyngeal pain, % of participants / Polyuria, % of participants / Tunnel vision, % of participants / Vision blurred, % of participants: double-blind
Experimental: Adverse events were monitored throughout the study. Other safety assessments (i.e., laboratory tests, vital signs, physical examination) were performed at pre-specified time points. Vital signs, the Clinician Administered Dissociative States Scale (CADSS; Bremner, “Measurement of dissociative states with the clinician-administered dissociative states scale (CADSS)”, J. Traumatic Stress, 1998, 11(1):125-136), and the 4-item positive symptom subscale from the Brief Psychiatric Rating Scale (BPRS; Overall, “The Brief Psychiatric Rating Scale. Psychological Reports”, 1962, 10:799-812) were assessed pre-dose, at 40 minutes, and 2 hours post-dose.
Safety data were analyzed in Period 1, Period 2, double-blind, and open-label data sets, for all subjects receiving at least 1 dose of study medication.

[2] = test system: elderly subjects with TRD; conditions: US patients aged ≥65 years

CN[C@]1(c2ccccc2Cl)CCCCC1=O [esketamine, (S)-2-(2-chlorophenyl)-2-(methylamino)cyclohexanone]
Time of peak of transient blood pressure increases (subjects with TRD): approximately 40 minutes post dose
Time of return of blood pressure closer to predose levels (subjects with TRD): ≤ 1.5 hours post dose
Dissociation, number of participants ([1]; 28 mg): 0
Dissociative disorder, % of participants ([1]; 28 mg): 11%
Dissociative disorder, number of participants ([1]; 28 mg): 2
Dizziness, % of participants ([1]; 28 mg): 21%
Dizziness, number of participants ([1]; 28 mg): 4
Dysgeusia, % of participants ([1]; 28 mg): 11%
Dysgeusia, number of participants ([1]; 28 mg): 2
Feeling abnormal, % of participants ([1]; 28 mg): 11%
Feeling abnormal, number of participants ([1]; 28 mg): 2
Headache, % of participants ([1]; 28 mg): 32%
Headache, number of participants ([1]; 28 mg): 6
Hypersomnia, % of participants ([1]; 28 mg): 11%
Hypersomnia, number of participants ([1]; 28 mg): 2
Hypertension, number of participants ([1]; 28 mg): 0
Hypoesthesia oral, % of participants ([1]; 28 mg): 5%
Hypoesthesia oral, number of participants ([1]; 28 mg): 1
Insomnia, number of participants ([1]; 28 mg): 0
Nasal discomfort, number of participants ([1]; 28 mg): 0
Nausea, % of participants ([1]; 28 mg): 11%
Nausea, number of participants ([1]; 28 mg): 2
Oropharyngeal pain, number of participants ([1]; 28 mg): 0
Polyuria, number of participants ([1]; 28 mg): 0
Sedation, % of participants ([1]; 28 mg): 5%
Sedation, number of participants ([1]; 28 mg): 1
Throat irritation, % of participants ([1]; 28 mg): 5%
Throat irritation, number of participants ([1]; 28 mg): 1
Total with events, % of participants ([1]; 28 mg): 58%
Total with events, number of participants ([1]; 28 mg): 11
Tunnel vision, number of participants ([1]; 28 mg): 0
Vertigo, % of participants ([1]; 28 mg): 11%
Vertigo, number of participants ([1]; 28 mg): 2
Vision blurred, number of participants ([1]; 28 mg): 0
Dissociation, % of participants ([1]; 56 mg): 35%
Dissociation, number of participants ([1]; 56 mg): 7
Dissociative disorder, % of participants ([1]; 56 mg): 5%
Dissociative disorder, number of participants ([1]; 56 mg): 1
Dizziness, % of participants ([1]; 56 mg): 40%
Dizziness, number of participants ([1]; 56 mg): 8
Dysgeusia, % of participants ([1]; 56 mg): 15%
Dysgeusia, number of participants ([1]; 56 mg): 3
Feeling abnormal, % of participants ([1]; 56 mg): 5%
Feeling abnormal, number of participants ([1]; 56 mg): 1
Headache, % of participants ([1]; 56 mg): 15%
Headache, number of participants ([1]; 56 mg): 3
Hypersomnia, number of participants ([1]; 56 mg): 0
Hypertension, % of participants ([1]; 56 mg): 10%
Hypertension, number of participants ([1]; 56 mg): 2
Hypoesthesia oral, % of participants ([1]; 56 mg): 20%
Hypoesthesia oral, number of participants ([1]; 56 mg): 4
Insomnia, % of participants ([1]; 56 mg): 10%
Insomnia, number of participants ([1]; 56 mg): 2
Nasal discomfort, % of participants ([1]; 56 mg): 10%
Nasal discomfort, number of participants ([1]; 56 mg): 2
Nausea, % of participants ([1]; 56 mg): 20%
Nausea, number of participants ([1]; 56 mg): 4
Oropharyngeal pain, % of participants ([1]; 56 mg): 5%
Oropharyngeal pain, number of participants ([1]; 56 mg): 1
Polyuria, % of participants ([1]; 56 mg): 10%
Polyuria, number of participants ([1]; 56 mg): 2
Sedation, % of participants ([1]; 56 mg): 10%
Sedation, number of participants ([1]; 56 mg): 2
Throat irritation, number of participants ([1]; 56 mg): 0
Total with events, % of participants ([1]; 56 mg): 80%
Total with events, number of participants ([1]; 56 mg): 16
Tunnel vision, number of participants ([1]; 56 mg): 0
Vertigo, % of participants ([1]; 56 mg): 5%
Vertigo, number of participants ([1]; 56 mg): 1
Vision blurred, number of participants ([1]; 56 mg): 0
Dissociation, % of participants ([1]; 84 mg): 24%
Dissociation, number of participants ([1]; 84 mg): 4
Dissociative disorder, % of participants ([1]; 84 mg): 24%
Dissociative disorder, number of participants ([1]; 84 mg): 4
Dizziness, % of participants ([1]; 84 mg): 47%
Dizziness, number of participants ([1]; 84 mg): 8
Dysgeusia, % of participants ([1]; 84 mg): 29%
Dysgeusia, number of participants ([1]; 84 mg): 5
Feeling abnormal, % of participants ([1]; 84 mg): 6%
Feeling abnormal, number of participants ([1]; 84 mg): 1
Headache, % of participants ([1]; 84 mg): 18%
Headache, number of participants ([1]; 84 mg): 3
Hypersomnia, number of participants ([1]; 84 mg): 0
Hypertension, % of participants ([1]; 84 mg): 6%
Hypertension, number of participants ([1]; 84 mg): 1
Hypoesthesia oral, % of participants ([1]; 84 mg): 12%
Hypoesthesia oral, number of participants ([1]; 84 mg): 2
Insomnia, number of participants ([1]; 84 mg): 0
Nasal discomfort, % of participants ([1]; 84 mg): 6%
Nasal discomfort, number of participants ([1]; 84 mg): 1
Nausea, % of participants ([1]; 84 mg): 24%
Nausea, number of participants ([1]; 84 mg): 4
Oropharyngeal pain, % of participants ([1]; 84 mg): 12%
Oropharyngeal pain, number of participants ([1]; 84 mg): 2
Polyuria, number of participants ([1]; 84 mg): 0
Sedation, % of participants ([1]; 84 mg): 6%
Sedation, number of participants ([1]; 84 mg): 1
Throat irritation, % of participants ([1]; 84 mg): 12%
Throat irritation, number of participants ([1]; 84 mg): 2
Total with events, % of participants ([1]; 84 mg): 88%
Total with events, number of participants ([1]; 84 mg): 15
Tunnel vision, % of participants ([1]; 84 mg): 12%
Tunnel vision, number of participants ([1]; 84 mg): 2
Vertigo, % of participants ([1]; 84 mg): 6%
Vertigo, number of participants ([1]; 84 mg): 1
Vision blurred, % of participants ([1]; 84 mg): 12%
Vision blurred, number of participants ([1]; 84 mg): 2
Dissociation, % of participants ([1]; Total esketamine): 20%
Dissociation, number of participants ([1]; Total esketamine): 11
Dissociative disorder, % of participants ([1]; Total esketamine): 13%
Dissociative disorder, number of participants ([1]; Total esketamine): 7
Dizziness, % of participants ([1]; Total esketamine): 36%
Dizziness, number of participants ([1]; Total esketamine): 20
Dysgeusia, % of participants ([1]; Total esketamine): 18%
Dysgeusia, number of participants ([1]; Total esketamine): 10
Feeling abnormal, % of participants ([1]; Total esketamine): 7%
Feeling abnormal, number of participants ([1]; Total esketamine): 4
Headache, % of participants ([1]; Total esketamine): 21%
Headache, number of participants ([1]; Total esketamine): 12
Hypersomnia, % of participants ([1]; Total esketamine): 4%
Hypersomnia, number of participants ([1]; Total esketamine): 2
Hypertension, % of participants ([1]; Total esketamine): 5%
Hypertension, number of participants ([1]; Total esketamine): 3
Hypoesthesia oral, % of participants ([1]; Total esketamine): 13%
Hypoesthesia oral, number of participants ([1]; Total esketamine): 7
Insomnia, % of participants ([1]; Total esketamine): 4%
Insomnia, number of participants ([1]; Total esketamine): 2
Nasal discomfort, % of participants ([1]; Total esketamine): 5%
Nasal discomfort, number of participants ([1]; Total esketamine): 3
Nausea, % of participants ([1]; Total esketamine): 18%
Nausea, number of participants ([1]; Total esketamine): 10
Oropharyngeal pain, % of participants ([1]; Total esketamine): 5%
Oropharyngeal pain, number of participants ([1]; Total esketamine): 3
Polyuria, % of participants ([1]; Total esketamine): 4%
Polyuria, number of participants ([1]; Total esketamine): 2
Sedation, % of participants ([1]; Total esketamine): 7%
Sedation, number of participants ([1]; Total esketamine): 4
Throat irritation, % of participants ([1]; Total esketamine): 5%
Throat irritation, number of participants ([1]; Total esketamine): 3
Total with events, % of participants ([1]; Total esketamine): 75%
Total with events, number of participants ([1]; Total esketamine): 42
Tunnel vision, % of participants ([1]; Total esketamine): 4%
Tunnel vision, number of participants ([1]; Total esketamine): 2
Vertigo, % of participants ([1]; Total esketamine): 7%
Vertigo, number of participants ([1]; Total esketamine): 4
Vision blurred, % of participants ([1]; Total esketamine): 4%
Vision blurred, number of participants ([1]; Total esketamine): 2
Participants with adverse events leading to discontinuation of study drug ([1]; double-blind phase): 5%
Adverse event dizziness ([1]; open-label phase): 38.6%
Adverse event dysgeusia ([1]; open-label phase): 22.8%
Adverse event headache ([1]; open-label phase): 14.0%
Adverse event nausea ([1]; open-label phase): 15.8%
Adverse event sedation ([1]; open-label phase): 10.5%
Participants reporting transient dissociative symptoms ([1]; open-label phase): 24.6%
Participants with adverse events leading to discontinuation of study drug ([1]; open-label phase): 2%
Patients who withdrew the nasal spray [2]: 2 patients
